Measurements reported in patent US20060079453A1, “Hla binding peptides and their uses” (priority 2002, published 2006).
Where two headings read alike, the source gives them in different places. No end group written: not given here.

How the values were obtained:
Assay in all cases: biochemical
Assay type in all cases: binding
HLA-A*3101 = HLA-A*3101 (Homo sapiens, UniProt P04439, A270S/D185E/E176V/E277Q/F33T/G231S/G80R/H175R/I121M/I218V/I322F/K168Q/L300P/L318F/M331R/P217A/Q94H/R138Q/T323A/T345S/T97I/V358M)
HLA-A*0301 = HLA-A*0301 (Homo sapiens, UniProt P04439)
HLA-A*3301 = HLA-A*3301 (Homo sapiens, UniProt P04439, A270S/D185E/E176V/E277Q/E87N/F33T/G231S/H175R/I121M/I218V/I322F/K168Q/K210R/L300P/L318F/M331R/P217A/Q86R/Q94H/R138Q/T323A/T345S/T97I/V358M/Y195H)
HLA-A*1101 = HLA-A*1101 (Homo sapiens, UniProt P04439, A114D/D185E/E176A/F33Y/L180Q/S129P/T187R)
HLA-A*6801 = HLA-A*6801 (Homo sapiens, UniProt P04439, A269V/D185E/E176V/E277Q/E87N/F33Y/G231S/I121M/I166T/I218V/L180W/L300P/L318F/N151K/P208A/P217A/Q86R/R169H/T345S)

Row | Sequence | IC50 (HLA-A*3101) [nM] | IC50 (HLA-A*0301) [nM] | IC50 (HLA-A*3301) [nM] | IC50 (HLA-A*1101) [nM] | IC50 (HLA-A*6801) [nM] | IC50 (HLA-A*3101; read-out: A*3101 binding affinity (expressed as an IC50)) [nM] | IC50 (HLA-A*6801; read-out: A*6801 binding affinity (expressed as an IC50)) [nM] | IC50 (HLA-A*1101; read-out: A*1101 binding affinity (expressed as an IC50)) [nM] | IC50 (HLA-A*0301; read-out: A*0301 binding affinity (expressed as an IC50)) [nM]
1 | AFTDLTIVYK | 3950 | 701 | 9380 |  |  |  |  |  | 
2 | ALERLLSLKK | 33600 |  | 18300 | 822 |  |  |  |  | 
3 | AQPATADYK |  | 3500 | 58900 | 109 |  |  |  |  | 
4 | ATRDLCIVYR | 4.7 | 237 | 44 |  | 28 |  |  |  | 
5 | AVCWRPRRK |  | 34 | 7950 |  |  |  |  |  | 
6 | AVDGPGPGK | 36800 |  | > 112000 | 19 |  |  |  |  | 
7 | AVDLSFFLK | 6210 | 226 | > 27800 |  | 4040 |  |  |  | 
8 | AVGPGPGLK | 128 | 18 | 75800 | 3.6 |  |  |  |  | 
9 | AVLQDIVLH | 6310 |  | 25800 |  | 27000 |  |  |  | 
10 | AVSEIQNNK |  | 25 | 25400 | 11 | 14 |  |  |  | 
11 | CFLFYSKVRK | 81 |  | 315 | 96 |  |  |  |  | 
12 | CLLFYSKVRR | 159 |  | 386 | 204 |  |  |  |  | 
13 | DSIPHAACHR |  | 2770 | 2.2 | 853 | 27 |  |  |  | 
14 | DVSHFLKEK | > 17800 | > 9300 | 232 |  |  |  |  |  | 
15 | ELFDKDTFFK | 3680 | 144 | 13 |  | 3.6 |  |  |  | 
16 | EQRLPLLPK |  | 1090 | 987 | 765 | 1910 |  |  |  | 
17 | ETGPSGQPGK |  |  |  |  |  | > 22500 | 50 | 3500 | > 14600
18 | EVLEESVHEIR | 31000 | > 45600 |  | > 20200 | 240 |  |  |  | 
19 | EVYKFLFTDLR |  | 31200 | 4.3 | 602 | 11 |  |  |  | 
20 | FAFKDLFVVK | 525 | 783 |  | 71 | 3.6 |  |  |  | 
21 | FLFTDLRIVYR | 58 | 672 | 21 |  | 1.4 |  |  |  | 

Row | Sequence | IC50 (HLA-A*3101) [nM] | IC50 (HLA-A*0301) [nM] | IC50 (HLA-A*3301) [nM] | IC50 (HLA-A*1101) [nM] | IC50 (HLA-A*6801) [nM] | IC50 (HLA-A*3101; read-out: A*3101 binding affinity (expressed as an IC50)) [nM] | IC50 (HLA-A*6801; read-out: A*6801 binding affinity (expressed as an IC50)) [nM] | IC50 (HLA-A*1101; read-out: A*1101 binding affinity (expressed as an IC50)) [nM] | IC50 (HLA-A*0301; read-out: A*0301 binding affinity (expressed as an IC50)) [nM]
22 | FSYDLRLNK | 461 | 29 |  | 4.9 | 15 |  |  |  | 
23 | FVDLTIVYR | 2380 | 29700 | 430 | 5310 |  |  |  |  | 
24 | FVVQLDIQSTK |  | 3680 | 31400 | 853 | 2.7 |  |  |  | 
25 | GTRQTRKNRK | 2490 |  | 60200 |  | 6000 |  |  |  | 
26 | GVGPGPGLK |  | 47 | > 112000 | 4 |  |  |  |  | 
27 | GVIYIMIISK | 18800 | 777 | 1570 |  |  |  |  |  | 
28 | GVNHQHLPK |  | 26 | 15600 | 7.7 |  |  |  |  | 
29 | HGAITSSNTK | > 16100 | 2840 | > 22900 |  |  |  |  |  | 
30 | IALLIIPPK |  |  | 1400 | 108 | 1960 |  |  |  | 
31 | ILYRDCIAY |  |  | 44700 | 1830 | > 19600 |  |  |  | 
32 | KAGPGGYPRK | 10700 | 62 | > 17800 | 43 |  |  |  |  | 
33 | KFLEERVKK | 30 | 5340 | 9740 | 2230 |  |  |  |  | 
34 | KFSEYRHYNY |  | 5820 | 18400 |  | 1800 |  |  |  | 
35 | KISEYRHYCR | 25 | 486 |  | 688 | 1490 |  |  |  | 
36 | KISEYRHYNY |  | 42 | 35300 |  | 25100 |  |  |  | 
37 | KLYSKISEYR | 6.4 | 5.4 |  | 168 | 91 |  |  |  | 
38 | KMGPGPGK | 1140 | 84 | 106000 |  | 4160 |  |  |  | 
39 | KQVQMMIMIK | 4630 | 264 | 1230 |  |  |  |  |  | 
40 | KSKFGYGAK |  | 36 | > 123000 | 596 | > 7630 |  |  |  | 
41 | KTLEERVKR | 37 | 1960 | 1360 |  |  |  |  |  | 
42 | KTLGISYGRKK | 91 | 52 | 23400 |  | 647 |  |  |  | 
